Assay results reported in paper PMC10384666, “Impact of Peptide Structure on Colonic Stability and Tissue Permeability” (Pharmaceutics, 2023).
Bridge positions count the residues as written; N and C are the ends. Square brackets hold non-standard residues; d marks the D form. Ends that are not written are not given here. Peptide text beside a SMILES is read from it.

Experiments:
[1] = Peptide stability in a human colon model (pooled human faecal slurry, anaerobic); type: in vitro ADME; conditions: for Degradation rate constant / half-life at 1 mg/mL: fitted to exponential (one-phase, first-order) decay model; for Degradation rate constant: plateau 0.0; for remaining at 1.5 h, 1 mg/mL: after 1.5 h incubation, n = 3, read-out: peptide remaining intact (of starting concentration); for time interval in which entirely depleted: footnote to Table S1; for higher stability than linear P1: at 30 min, relative to P1 (totally degraded)
Procedure: The human colon model (HCM) was prepared to mimic in vivo colonic conditions and maintain microbial viability. Fresh human faecal material was provided voluntarily from 3 healthy individuals who had not taken antibiotics for at least 6 months. Approval for the collection and use of human faecal material was obtained from the National Research Ethics Service (NRES) of Royal Free Hospital Biobank (reference number NC2017.010). Faecal material from the 3 donors was pooled and then diluted within an anaerobic workstation (37 °C, 70% relative humidity) (Elektrotek, Yorkshire, United Kingdom), using an in-house basal growth media to prepare 12.5% or 25% faecal slurries. These slurry concentrations have been used to measure the colonic stability of several drugs and exceed the minimum concentrations required for biorelevant bacterial activity. The samples were homogenised before being sieved (SefarNitex™, pore size 350 µm) to remove fibrous material. Faecal slurry was frozen at −80 °C in aliquots and thawed immediately prior to use.
Peptide stability studies were conducted within the anaerobic workstation (Elektrotek, Yorkshire, United Kingdom). An amount of 2 mg/mL stock solutions of oxytocin and oxytocin variants were prepared and added to HCM at a 1:1 ratio, leading to 1 mg/mL incubation concentrations (n = 3 for each peptide). Incubation vials were placed on a 100 RPM shaker and 50 µL samples were withdrawn at specific time intervals (0, 0.5, 1 and 1.5 h) and immediately quenched with 50 µL methanol (1:1) to terminate protease activity. Samples were centrifuged at 16,900 RCF for 10 min at 4 °C, and the supernatant was collected for peptide quantification with a 1260 II Series™ HPLC system (Agilent Technologies, Cheadle, UK). A Luna C18 (5 µm, 100 Å, 150 × 4.6 mm) HPLC column was used with a 1.0 mL/min flow rate, an injection volume of 20 µL and mobile phases of 0.1% TFA in water and ACN, with varying gradients for optimised individual peptide quantification to prevent overlap with endogenous components of the HCM.
All results are presented as mean ± standard deviation and subjected to statistical analysis using GraphPad Prism 9 (GraphPad by Dotmatics). Two-way ANOVA with Dunnett’s multiple comparison test was performed to determine statistical significance between peptides and native oxytocin at multiple timepoints. Results were deemed significant where p < 0.05. The physicochemical properties of peptides were estimated using RDKit (version 2021.09.4) in Python (version 3.6.15) via Jupyter Notebook (version 6.3.0) using the peptides’ isomeric SMILES. The Tanimoto similarities of the peptide variants’ molecular structure to native oxytocin was calculated using chemical fingerprints (ECFP6, radius 3, 2048 bits) RDKit (version 2022.9.1) with Python (version 3.7.0) via Google Colaboratory. Chemical similarity maps were generated using RDKit based on bit-vector fingerprints (chirality = true, radius 3, 2048 bits) and Tanimoto similarity. The degradation profiles of peptides were fitted to an exponential decay model in GraphPad Prism 9. A nonlinear regression (one-phase decay, also known as first-order decay) curve was fitted to the peptide stability data with a plateau constraint of 0.0.

[2] = Peptide tissue permeability, Ussing chamber with rat colonic tissue; type: in vitro ADME; conditions: for original dose detected in the basolateral chamber / original dose detected within the colonic tissue: at 2 h; for Papp at 2 h, 1 mg/mL: pH 7.4, 2 h (120 min)
Procedure: Peptide permeability studies were conducted using the NaviCyte Vertical Ussing chamber model (Harvard Apparatus, Cambridge, UK). Amounts of 250–300 g adult male Wistar rats (n = 3) were selected and sacrificed, in accordance with the accepted ethical standards of the National Research Ethics Service (ethical approval number 21/WA/0388). The rat colonic tissues were excised, processed to remove luminal contents and gently washed with Krebs-Ringer Bicarbonate (KBR) buffer (pH 7.4). Each colonic tissue was mounted on an Ussing chamber with the mucosal side facing the apical chamber. The tissue was allowed to acclimatise in the KBR buffer for 20 min. Transepithelial electrical resistance (TEER) across the tissue was measured using an EVOM^TM voltameter (World Precision Instruments, Inc., Hertfordshire, UK) and Ag/AgCl electrodes (Harvard Apparatus, Cambridge, UK). TEER values were measured to ensure the tissue integrity was maintained (≥200 Ω cm^2). The native oxytocin and oxytocin variants at 1 mg/mL concentrations were added to the apical chamber to measure peptide permeation into the tissue and into the basal chamber. Each peptide was tested twice using tissue from the three rats to account for any inter-animal variability. The Ussing chambers were continuously pumped with a supply of carbogen (95% oxygen/5% carbon dioxide) and maintained at 37 °C. An amount of 100 µL samples were taken from the basal side at 1 and 2 h timepoints. At 2 h, the tissues were collected, quenched with 6.25 µL methanol/mg tissue, sectioned with scissors, sonicated for 5 min and centrifuged for 10 min (4 °C, 16,900 RCF), with the supernatant used for peptide quantification. The amount of peptide within the basal chamber and tissue samples was measured with the HPLC method described in Section 3.3 and presented as the percentage of the peptide dose originally applied to the apical chamber. The apparent permeability (Papp) of peptides was calculated using Equation (1):(1) […]
Equation (1): Apparent permeability (Papp) of peptides across the rat colonic tissue was calculated using the peptide flux (µg/s, dQ/dt), the surface area of the tissue (cm^2) and the initial peptide concentration in the apical chamber (C0).

[3] = human, human colon model (HCM), pooled human faecal slurry
[4] = human, human colon model (pooled human faecal slurry, anaerobic), HCM
[5] = male, Wistar, 1 mg/mL apical, read-out: apparent permeability (Papp)

| Molecule | Degradation rate constant ([1]; HCM) | half-life at 1 mg/mL [1, 3] | remaining at 1.5 h, 1 mg/mL [1, 4] | further results |
| --- | --- | --- | --- | --- |
| CC[C@H](C)[C@@H]1NC(=O)[C@H](Cc2ccc(O)cc2)NC(=O)[C@@H](N)CSSC[C@@H](C(=O)N2CCC[C@H]2C(=O)N[C@H](CC(C)C)C(=O)NCC(N)=O)NC(=O)[C@H](CC(N)=O)NC(=O)[C@H](CCC(N)=O)NC1=O [Peptide P7] | 1.05 h⁻¹ | 39.6 min | 22.3 ± 0.85% |  |
| CC[C@@H](C)[C@H]1NC(=O)[C@@H](Cc2ccc(O)cc2)NC(=O)[C@H](C)NC(=O)CSC[C@@H](C(=O)N2CCC[C@H]2C(=O)N[C@H](CC(C)C)C(=O)NCC(N)=O)NC(=O)[C@H](CC(N)=O)NC(=O)[C@H](CCC(N)=O)NC1=O [Peptide P5] ({CH2CO}-A[dY][dI]QNCP[dL]G-NH2; thioether N-6) | 0.0322 h⁻¹ | 1290 min | 95.2 ± 3.14% |  |
| CC[C@H](C)[C@@H]1NC(=O)[C@H](Cc2ccc(O)cc2)NC(=O)[C@@H](NC(C)=O)CSSC[C@@H](C(=O)N2CCC[C@H]2C(=O)N[C@@H](CC(C)C)C(=O)NCC(N)=O)NC(=O)[C@H](CC(N)=O)NC(=O)[C@H](CCC(N)=O)NC1=O [Peptide P2] | 3.17 h⁻¹ | 13.1 min |  | metabolised at 1.5 h, 1 mg/mL ([1]; human, human colon model (pooled human faecal slurry, anaerobic), HCM, after 1.5 h, read-out: peptide degraded by the HCM): 97.2 ± 0.84% |
| CC[C@H](C)[C@H](NC(=O)[C@H](Cc1ccc(O)cc1)NC(=O)[C@H](C)N)C(=O)N[C@@H](CCC(N)=O)C(=O)N[C@@H](CC(N)=O)C(=O)N[C@@H](C)C(=O)N1CCC[C@H]1C(=O)N[C@H](CC(C)C)C(=O)NCC(N)=O [Peptide P9] (H-AYIQNAP[dL]G-NH2) |  |  |  | time to total degradation ([1]; HCM): less than 30 min; time interval in which entirely depleted ([1]; HCM): 0.0 to 0.5 h |
| CC[C@H](C)[C@@H]1NC(=O)[C@H](Cc2ccc(O)cc2)NC(=O)[C@@H](N)CSSC[C@@H](C(=O)N2CCC[C@H]2C(=O)N[C@@H](CC(C)C)C(=O)NCC(N)=O)NC(=O)[C@H](CC(N)=O)NC(=O)[C@H](CCC(N)=O)NC1=O [Oxytocin, oxytocin, reference compound] | 1.62 h⁻¹ |  | 6 ± 1.36% | original dose detected in the basolateral chamber [2]: not detected; original dose detected within the colonic tissue [2]: not detected; higher stability than linear P1 ([1]; HCM): 47.3 ± 1.98%; half-life at 1 mg/mL ([1]; human, HCM): 25.7 min |
| CC[C@H](C)[C@@H]1NC(=O)[C@H](Cc2ccc(O)cc2)NC(=O)[C@@H](N)CSCc2cccc(c2)CSC[C@@H](C(=O)N2CCC[C@H]2C(=O)N[C@@H](CC(C)C)C(=O)NCC(N)=O)NC(=O)[C@H](CC(N)=O)NC(=O)[C@H](CCC(N)=O)NC1=O [Peptide P6] | 5.39 h⁻¹ | 7.71 min |  | time to 100% degradation ([1]; HCM): less than 1 h |
| P1: Linear form of oxytocin, the two cysteines replaced by alanines (AYIQNAPLG-NH2; ends and bridges not checked; UniProt P01178 20-28, looked up, variant C1A C6A) [Peptide P1] |  |  |  | time interval in which entirely depleted ([1]; HCM): 0.0 to 0.5 h |

Second part, led by results:

| Degradation rate constant ([1]; HCM) | half-life at 1 mg/mL [1, 3] | remaining at 1.5 h, 1 mg/mL [1, 4] | Molecule | further results |
| --- | --- | --- | --- | --- |
| 2.33 h⁻¹ | 17.8 min | 3.7 ± 0.43% | CC[C@@H](C)[C@H]1NC(=O)[C@@H](Cc2ccc(O)cc2)NC(=O)[C@@H](N)CSSC[C@@H](C(=O)N2CCC[C@H]2C(=O)N[C@@H](CC(C)C)C(=O)NCC(N)=O)NC(=O)[C@H](CC(N)=O)NC(=O)[C@H](CCC(N)=O)NC1=O [Peptide P8] |  |
| 2.05 h⁻¹ | 20.3 min |  | CC[C@@H](C)[C@@H](NC(=O)[C@@H](Cc1ccc(O)cc1)NC(=O)[C@H](C)N)C(=O)N[C@@H](CCC(N)=O)C(=O)N[C@@H](CC(N)=O)C(=O)N[C@@H](C)C(=O)N1CCC[C@H]1C(=O)N[C@@H](CC(C)C)C(=O)NCC(N)=O [Peptide P10] (H-A[dY][dI]QNAPLG-NH2) |  |
| 0.289 h⁻¹ | 144 min | 64.2 ± 1.18% | CC[C@@H](C)[C@@H](NC(=O)[C@@H](Cc1ccc(O)cc1)NC(=O)[C@H](C)N)C(=O)N[C@@H](CCC(N)=O)C(=O)N[C@@H](CC(N)=O)C(=O)N[C@@H](C)C(=O)N1CCC[C@H]1C(=O)N[C@H](CC(C)C)C(=O)NCC(N)=O [Peptide P11] (H-A[dY][dI]QNAP[dL]G-NH2) | Papp at 2 h, 1 mg/mL [2, 5]: 35.2 ×10⁻⁶ cm/s |
| 0.688 h⁻¹ | 60.4 min | 34.4 ± 0.61% | CC[C@H](C)[C@@H]1NC(=O)[C@H](Cc2ccc(O)cc2)NC(=O)[C@H](C)NC(=O)CSC[C@@H](C(=O)N2CCC[C@H]2C(=O)N[C@@H](CC(C)C)C(=O)NCC(N)=O)NC(=O)[C@H](CC(N)=O)NC(=O)[C@H](CCC(N)=O)NC1=O [Peptide P3] ({CH2CO}-AYIQNCPLG-NH2; thioether N-6) |  |
| 0.108 h⁻¹ | 385 min | 85.1 ± 0.21% | CC[C@@H](C)[C@H]1NC(=O)[C@@H](Cc2ccc(O)cc2)NC(=O)[C@@H](N)CSSC[C@@H](C(=O)N2CCC[C@H]2C(=O)N[C@H](CC(C)C)C(=O)NCC(N)=O)NC(=O)[C@H](CC(N)=O)NC(=O)[C@H](CCC(N)=O)NC1=O [Peptide P4] | original dose detected in the basolateral chamber [2]: 6.85 ± 2.05%; original dose detected within the colonic tissue [2]: 3.0 ± 0.85%; Papp at 1 h, 1 mg/mL ([2]; male, Wistar, pH 7.4, 1 h (60 min), 1 mg/mL apical, read-out: apparent permeability (Papp)): 57 ×10⁻⁶ cm/s; Papp at 2 h, 1 mg/mL [2, 5]: 206 ×10⁻⁶ cm/s; higher stability than linear P1 ([1]; HCM): 90.3 ± 1.57% |
